From PubChem BioAssay (NCI) come the findings set out here.

Some test systems named below: CAKI-1 renal; HS 578T breast; IGROV1 ovarian; NCI-H226 lung; NCI-H23 lung; NCI/ADR-RES ovarian; OVCAR-8 ovarian; SK-MEL-5 melanoma; SK-OV-3 ovarian; SR leukemia.
What all share (test): NCI tumour cell line growth inhibition, 48 h

SMILES strings stand for the structures.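 All cell lines were grown in 96-well plates and treated with compound for 48 hours. GI50 marks 50% less growth. TGI denotes the concentration required for complete inhibition of growth.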

With `Oc1ccc(N=Nc2nccs2)c(O)c1`, the GI50 with CAKI-1 renal was 0.417 µM; with HS 578T breast, 13.6 µM; in the assay with IGROV1 ovarian it was 4.14 µM; with NCI-H226 lung, 12.4 µM; in the assay with NCI-H23 lung, 5.36 µM; in the assay with NCI/ADR-RES ovarian, 2.58 µM. Besides, the GI50 was 3.75 µM in the assay on OVCAR-8 ovarian, 3.44 µM with SK-MEL-5 melanoma, 6.97 µM in the assay on SK-OV-3 ovarian and 2.12 µM with SR leukemia. Besides, the TGI in the assay with CAKI-1 renal was 2.37 µM; with HS 578T breast, 78.1 µM; in the assay on IGROV1 ovarian it was 15.2 µM; with NCI-H226 lung, 45.1 µM; in the assay on NCI-H23 lung, 28.7 µM; in the assay on NCI/ADR-RES ovarian, 9.1 µM. The TGI is 23 µM with OVCAR-8 ovarian, 18.4 µM in the assay on SK-MEL-5 melanoma, 62.6 µM with SK-OV-3 ovarian and 9.8 µM with SR leukemia.
Regarding `CN1C(NNC(=O)c2cccnc2)=NS(=O)(=O)c2cc(Cl)ccc21`, the GI50 in the assay on CAKI-1 renal, with HS 578T breast, in the assay with IGROV1 ovarian, in the assay on NCI-H226 lung, in the assay with NCI-H23 lung and with NCI/ADR-RES ovarian was over 100 µM in each case. The GI50 with OVCAR-8 ovarian, in the assay on SK-MEL-5 melanoma, in the assay on SK-OV-3 ovarian and in the assay on SR leukemia was over 100 µM in each case. Further, the TGI in the assay with CAKI-1 renal, in the assay on HS 578T breast, in the assay on IGROV1 ovarian, in the assay with NCI-H226 lung, in the assay on NCI-H23 lung and with NCI/ADR-RES ovarian was over 100 µM in each case. The TGI with OVCAR-8 ovarian, in the assay with SK-MEL-5 melanoma, in the assay with SK-OV-3 ovarian and in the assay on SR leukemia was over 100 µM throughout.
Take `O=C1c2ccccc2C(=O)c2c(NCCN=Cc3ccccc3O)cccc21`: the GI50 in the assay with CAKI-1 renal was 0.434 µM; in the assay on HS 578T breast it was 1.72 µM; in the assay with IGROV1 ovarian, 2.57 µM; with NCI-H226 lung it was 7.97 µM; in the assay with NCI-H23 lung it was 12.4 µM; in the assay with NCI/ADR-RES ovarian, 10.5 µM. For the same molecule, the GI50 in the assay on OVCAR-8 ovarian is 4.93 µM; in the assay with SK-MEL-5 melanoma it was 1.51 µM; with SK-OV-3 ovarian it was 3.54 µM; in the assay on SR leukemia, 0.944 µM. Further, the TGI with CAKI-1 renal is 2.8 µM; in the assay with HS 578T breast, 4.88 µM; in the assay with IGROV1 ovarian, 10.3 µM; in the assay on NCI-H226 lung, over 38.2 µM; in the assay on NCI-H23 lung it was over 100 µM; in the assay on NCI/ADR-RES ovarian, over 100 µM. Moreover, the TGI in the assay with OVCAR-8 ovarian is 22.1 µM; with SK-MEL-5 melanoma, 5.2 µM; in the assay on SK-OV-3 ovarian it was over 48.2 µM; with SR leukemia it was over 100 µM.
Regarding `Nc1c(C(=O)Nc2ccccc2Cl)sc2nc3c(cc12)C(=O)CCC3`, the GI50 in the assay with CAKI-1 renal is 1.84 µM; in the assay with HS 578T breast, 3.56 µM; in the assay with IGROV1 ovarian, over 100 µM; with NCI-H226 lung, 14.6 µM; in the assay on NCI-H23 lung, 2.04 µM; in the assay on NCI/ADR-RES ovarian, 5.34 µM. Moreover, the results for the GI50 in the assay on OVCAR-8 ovarian, in the assay on SK-MEL-5 melanoma and with SK-OV-3 ovarian were over 25 µM, 1.02 µM and 0.782 µM, respectively. For the same molecule, the TGI in the assay with CAKI-1 renal, with HS 578T breast, in the assay on IGROV1 ovarian, in the assay with NCI-H226 lung, in the assay on NCI-H23 lung and with NCI/ADR-RES ovarian was over 100 µM in each case. Besides, the TGI in the assay with OVCAR-8 ovarian was over 100 µM; in the assay with SK-MEL-5 melanoma, over 100 µM; with SK-OV-3 ovarian it was over 50.5 µM; with SR leukemia it was over 100 µM.
Regarding `Cc1noc2c1-c1ccccc1C(c1ccc(Cl)cc1)=N[C@H]2CC(N)=O`, the GI50 is 0.368 µM in the assay on CAKI-1 renal; 1.59 µM in the assay on HS 578T breast; 6.03 µM in the assay with IGROV1 ovarian; 11.6 µM in the assay on NCI-H226 lung; 5.31 µM with NCI-H23 lung; 2.74 µM in the assay with NCI/ADR-RES ovarian. Moreover, the GI50 was 15.2 µM in the assay on OVCAR-8 ovarian, 6.96 µM in the assay with SK-MEL-5 melanoma, 1.54 µM in the assay with SK-OV-3 ovarian and 0.976 µM with SR leukemia. Besides, the TGI is over 100 µM in the assay with CAKI-1 renal; over 85.6 µM with HS 578T breast; over 100 µM in the assay on IGROV1 ovarian; over 100 µM in the assay on NCI-H226 lung; over 100 µM in the assay on NCI-H23 lung; over 100 µM with NCI/ADR-RES ovarian. Moreover, the TGI with OVCAR-8 ovarian is over 100 µM; with SK-MEL-5 melanoma it was over 75.2 µM; in the assay with SK-OV-3 ovarian, over 65.7 µM; in the assay with SR leukemia, over 70.6 µM.
On to `O=C(NC1CCCCC1)c1ccc(Nc2ncnc3c2cnn3-c2ccccc2)cc1`, for which the GI50 in the assay on CAKI-1 renal is 14 µM; in the assay on HS 578T breast it was 3.37 µM; with IGROV1 ovarian, 14.4 µM; with NCI-H226 lung, 3.35 µM; with NCI-H23 lung, 10.9 µM; with NCI/ADR-RES ovarian it was 7.06 µM. The GI50 in the assay with OVCAR-8 ovarian was 3.87 µM; in the assay with SK-MEL-5 melanoma, 21.7 µM; in the assay with SK-OV-3 ovarian, 2.95 µM; in the assay on SR leukemia it was 11.6 µM. Besides, the TGI in the assay on CAKI-1 renal is over 100 µM; with HS 578T breast, 34.2 µM; in the assay on IGROV1 ovarian it was 65.9 µM; in the assay on NCI-H226 lung it was 21.5 µM; with NCI-H23 lung, 89.9 µM; in the assay with NCI/ADR-RES ovarian it was over 100 µM. Also, the TGI in the assay with OVCAR-8 ovarian is 19.3 µM; in the assay on SK-MEL-5 melanoma it was over 100 µM; in the assay on SK-OV-3 ovarian, 8.7 µM; in the assay with SR leukemia it was 49.1 µM.
`COc1cc2c3c(n(CCCN(CCO)CCO)c(=O)c2cc1OC)-c1cc2c(cc1C3=O)OCO2`: the GI50 with CAKI-1 renal is under 0.01 µM; in the assay with HS 578T breast, 1.66 µM; in the assay with NCI-H226 lung, 0.0377 µM; in the assay with NCI-H23 lung, under 0.01 µM; in the assay on NCI/ADR-RES ovarian, 0.117 µM; with OVCAR-8 ovarian, 0.221 µM. For the same molecule, the GI50 was under 0.0159 µM in the assay on SK-MEL-5 melanoma, 2.22 µM in the assay with SK-OV-3 ovarian and under 0.01 µM with SR leukemia. Also, the TGI is under 0.018 µM in the assay with CAKI-1 renal; 13 µM in the assay with HS 578T breast; over 100 µM in the assay with IGROV1 ovarian; 0.724 µM with NCI-H226 lung; 0.139 µM with NCI-H23 lung; 6.01 µM in the assay on OVCAR-8 ovarian. Besides, the TGI is 0.413 µM in the assay on SK-MEL-5 melanoma, 34.9 µM with SK-OV-3 ovarian and under 0.01 µM in the assay on SR leukemia.
Regarding `O=C(Nc1ccc(Cl)cc1)Nc1nccs1`, the GI50 in the assay on CAKI-1 renal was 2.36 µM; in the assay with HS 578T breast, 1.33 µM; in the assay on IGROV1 ovarian, 1.26 µM; in the assay on NCI-H226 lung it was 4.46 µM; in the assay with NCI-H23 lung, 11.5 µM; in the assay on NCI/ADR-RES ovarian, 0.575 µM. Also, the GI50 is 3.39 µM in the assay on OVCAR-8 ovarian, 0.514 µM in the assay with SK-MEL-5 melanoma, 5.04 µM in the assay on SK-OV-3 ovarian and 0.45 µM in the assay with SR leukemia. In addition, the TGI was 54.8 µM in the assay with CAKI-1 renal; 34.1 µM with HS 578T breast; over 100 µM in the assay with IGROV1 ovarian; 57 µM in the assay with NCI-H226 lung; over 100 µM in the assay on NCI-H23 lung; 30.1 µM in the assay on NCI/ADR-RES ovarian. In addition, the TGI with OVCAR-8 ovarian was over 100 µM; in the assay on SK-MEL-5 melanoma it was 15.3 µM; with SK-OV-3 ovarian it was over 100 µM; with SR leukemia it was 62.6 µM.
